Earlier results, collected in patent publication US20060100182A1, “Pharmaceutical compositions for the treatment of urinary incontinence” (priority 2002, published 2006).
Counter-ions that a name gives are not always drawn.

systemic bioavailability (oral route, hepatic first-pass effect): ~6%
maximum plasmatic levels (oral route, recommended doses, 5 mg tablets): 8 to 18 ng/mL
elimination half-life (statutory information DITROPAN, Vidal 2001): 2 h
Structure (SMILES): CCN(CC)CC#CCOC(=O)C(O)(c1ccccc1)C1CCCCC1 (stereo not drawn) [oxybutynin, 4-(diethylamino)-2-butynyl acetate ∝-cyclohexyl ∝-hydroxyphenyl hydrochloride]
